Experimental findings from ChEMBL document CHEMBL1201862, “PubChem BioAssay data set” (2004) are described below.

Holding throughout (test): DTP human tumour cell line panel, 48 h
The subject of experiment [1] is CCRF-CEM.
Experiment [2] concerns HCT-15.
The subject of experiment [3] is KM12.
The subject of experiment [4] is SK-OV-3.
Experiment [5] has as its system NCI-H460.
In experiment [6] the test system is OVCAR-3.
Experiment [7] deals with MDA-MB-435.
Experiment [8] has as its system T47D.
Experiment [9] deals with SF-268.
Experiment [10] has as its system SK-MEL-28.
Experiment [11] deals with UACC-62.
Experiment [12] concerns TK-10.
For experiment [13], the system named is M14.
The test system of experiment [14] is RPMI-8226.
In experiment [15] the test system is SK-MEL-5.
The test system of experiment [16] is K562.
Experiment [17] relates to A498.
Experiment [18] deals with COLO 205.
In experiment [19] the test system is LOX IMVI.
The test system of experiment [20] is MOLT-4.

Each structure is given as a SMILES string.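 These data come from cells grown in 96-well plates and exposed to compound for 48 hours at five concentrations. GI50 marks 50% less growth.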 Active and inactive are the calls of the source. No stated cut-off is given here; in the data, active = GI50 up to about 1.1 µM and inactive = higher.

As usually defined, the GI50 is the concentration at which growth is held to half of that of the control. Regarding `Cc1ccc2oc(=O)c3c(O)c4cccc(OC5OC(C)C6O[C@@H](c7ccccc7)OC6C5OC5OC(C)C(O)C(O)C5O)c4c4oc(=O)c1c2c34` (stereo not given in full), the concentration for 50% growth inhibition (GI50) is 0.0182 µM (active) in experiment [1]; 0.553 µM in experiment [2]; 0.0785 µM (active) in experiment [3]; 0.2 µM (active) in [4]; < 0.0316 µM (active) in experiment [5]; 0.0857 µM (active) in experiment [6]. In addition, the GI50 in experiment [7] is 0.27 µM (active); in experiment [8], 0.0585 µM (active); in [9], 0.0545 µM (active); in experiment [10] it was 0.159 µM (active); in experiment [11], 0.0449 µM (active); in experiment [12], 0.392 µM (active). Also, the 50% growth inhibitory concentration (GI50) in [13] was 0.187 µM (active); in experiment [14] it was 0.0366 µM (active); in experiment [15], 0.0509 µM (active); in experiment [16] it was 0.0404 µM (active); in [17], 0.0274 µM (active); in experiment [18], 0.0675 µM (active).

On to `CCOP(=O)(OCC)/C(C#N)=C/c1ccnc2ccccc12`, for which the 50% growth inhibitory concentration (GI50) is 21.3 µM in experiment [2]; 27.2 µM (inactive) in experiment [3]; 36.2 µM (inactive) in experiment [4]; 43.6 µM (inactive) in experiment [5]; 20.3 µM (inactive) in experiment [6]; 16.4 µM (inactive) in [7]. Besides, the GI50 in experiment [8] is 55 µM (inactive); in [9], 18.4 µM (inactive); in experiment [10], 34.6 µM (inactive); in experiment [11], 26.1 µM (inactive); in experiment [12], 47.1 µM (inactive); in [13], 20.1 µM (inactive). Moreover, the GI50 in experiment [14] is 44.7 µM (inactive); in [15], 23.3 µM (inactive); in [19], 31.6 µM (inactive); in [17], 78.3 µM (inactive); in experiment [18] it was 18.1 µM (inactive); in experiment [20], > 100 µM (inactive).

Regarding `Nn1c(S)nnc1CCCCCCCCc1nnc(S)n1N`, the GI50 in [1] is 90.8 µM (inactive); in [2] it was above 100 µM; in experiment [3], > 100 µM (inactive); in experiment [4], > 100 µM (inactive); in [5] it was > 100 µM (inactive); in experiment [6], > 100 µM (inactive). Besides, the GI50 in experiment [7], in experiment [8], in experiment [9], in [10], in experiment [11] and in experiment [13] was > 100 µM (inactive) in each case. Moreover, the GI50 in experiment [14], in [16], in experiment [17], in [18] and in experiment [20] was > 100 µM (inactive) each time.

With `COc1ccc(C[N+]23C(CC[C@H]2c2ccccc2)CC[C@H]3c2ccccc2)cc1` (stereo not given in full), the GI50 is 27.5 µM (inactive) in experiment [1]; 10.4 µM (inactive) in [3]; 29.5 µM (inactive) in [4]; 6.04 µM (inactive) in [6]; 9.84 µM (inactive) in experiment [7]; 4.56 µM (inactive) in experiment [8]. The GI50 in experiment [9] was 30.3 µM (inactive); in [10], 20.3 µM (inactive); in experiment [12], 44.9 µM (inactive); in [13], 12.9 µM (inactive); in experiment [14], 2.8 µM (inactive); in experiment [15], 4.43 µM (inactive). Besides, the GI50 in experiment [16] was 6.46 µM (inactive); in [19], 16.6 µM (inactive); in experiment [17] it was 39.7 µM (inactive); in experiment [18] it was 5.26 µM (inactive); in [20], 21.6 µM (inactive).

As to `CS/C(C#N)=C(\C#N)SC`, the GI50 in experiment [1] is 5.6 µM (inactive); in experiment [2], 2.23 µM; in [3] it was 13.9 µM (inactive); in [5], 21.4 µM (inactive); in experiment [6] it was 1.77 µM (inactive); in experiment [7], 14 µM (inactive). The GI50 in [8] is 4.19 µM (inactive); in experiment [9], 11.9 µM (inactive); in experiment [10], 10.7 µM (inactive); in experiment [11], 2.94 µM (inactive); in [12], 6.55 µM (inactive); in experiment [13], 2.48 µM (inactive). In addition, the GI50 in [14] is 1.88 µM (inactive); in experiment [15], 18.2 µM (inactive); in experiment [16], 4.11 µM (inactive); in [19], 2.5 µM (inactive); in experiment [17], 23 µM (inactive); in experiment [18], 3.06 µM (inactive). The GI50 in experiment [20] was 0.233 µM (active).

Take `CO[C@H]1/C=C/O[C@@]2(C)Oc3c(C)c(O)c4c(O)c(c(/C=N/N5CCN(C)CC5)c(O)c4c3C2=O)NC(=O)/C(C)=C\C=C\[C@H](C)[C@H](O)[C@@H](C)[C@@H](O)[C@@H](C)[C@H](OC(C)=O)[C@@H]1C` [RIFAMPIN]: the GI50 was 26.2 µM (inactive) in [1]; > 100 µM (inactive) in [3]; > 100 µM (inactive) in experiment [4]; 45.8 µM (inactive) in experiment [5]; 24.8 µM (inactive) in experiment [6]; > 100 µM (inactive) in experiment [7]. The GI50 is > 100 µM (inactive) in experiment [8]; > 100 µM (inactive) in experiment [10]; > 100 µM (inactive) in experiment [11]; > 100 µM (inactive) in experiment [12]; 62.1 µM (inactive) in experiment [13]; 52.1 µM (inactive) in experiment [14]. The GI50 was 61.4 µM (inactive) in experiment [15]; > 100 µM (inactive) in experiment [16]; > 100 µM (inactive) in experiment [17]; 82.6 µM (inactive) in experiment [18]; 68.7 µM (inactive) in experiment [20].

Turning to `O=C(O)[C@H](Cc1ccccc1)NCCN1CCC[C@H]1C(=O)O`, the 50% growth inhibitory concentration (GI50) in experiment [2] is 22.2 µM; in [3] it was > 100 µM (inactive); in experiment [4] it was > 100 µM (inactive); in experiment [5], 42.1 µM (inactive); in experiment [6] it was > 100 µM (inactive); in experiment [7], > 100 µM (inactive). The GI50 is > 100 µM (inactive) in experiment [8]; > 100 µM (inactive) in [9]; > 100 µM (inactive) in experiment [10]; 70.8 µM (inactive) in experiment [11]; > 100 µM (inactive) in [13]; > 100 µM (inactive) in [14]. Further, the GI50 was > 100 µM (inactive) in [15]; 1.53 µM (inactive) in experiment [16]; 42.6 µM (inactive) in experiment [17]; 37.6 µM (inactive) in [18]; 99.8 µM (inactive) in experiment [20].

Take `O=C(Nc1ccc(Cl)cc1)Oc1ccc(C(=S)Nc2ccc(Br)cc2)cc1`: the GI50 in [1] was 3.04 µM (inactive); in [2] it was 11 µM; in experiment [3], 2.55 µM (inactive); in experiment [4], 26.5 µM (inactive); in [5], 4.85 µM (inactive); in experiment [6], 16.1 µM (inactive). The GI50 in [7] is 12.4 µM (inactive); in experiment [8] it was 10.5 µM (inactive); in experiment [9] it was 30.5 µM (inactive); in [10], 10.4 µM (inactive); in experiment [11], 1.63 µM (inactive); in [13], 3.43 µM (inactive). The GI50 in experiment [14] was 23.5 µM (inactive); in [15], 6.1 µM (inactive); in experiment [16], 2.36 µM (inactive); in experiment [19], 0.334 µM (active); in experiment [17], 19.1 µM (inactive); in [18], 9.75 µM (inactive). Besides, the GI50 in [20] was 4.44 µM (inactive).

As for `CC1(C)C(CC(=O)O)CCCC1CC(=O)O` (stereo not given), the GI50 in experiment [1] is > 100 µM (inactive); in [2], above 100 µM; in experiment [3], > 100 µM (inactive); in experiment [4], > 100 µM (inactive); in experiment [6] it was > 100 µM (inactive); in experiment [7], > 100 µM (inactive). In addition, the GI50 in experiment [8], in experiment [10], in experiment [11], in experiment [12], in experiment [13] and in [14] was > 100 µM (inactive) in each case. Also, the GI50 in [15], in [16], in experiment [19], in [17], in experiment [18] and in experiment [20] was > 100 µM (inactive) each time.

On to `COC(=O)c1cc2ccc(N)nc2[nH]c1=O`, for which the 50% growth inhibitory concentration (GI50) was above 100 µM in experiment [2]; > 100 µM (inactive) in [3]; > 100 µM (inactive) in experiment [4]; > 100 µM (inactive) in experiment [5]; > 100 µM (inactive) in [6]; > 100 µM (inactive) in experiment [7]. In addition, the GI50 in experiment [8], in experiment [9], in experiment [10], in experiment [12], in [13] and in experiment [14] was > 100 µM (inactive) throughout. Moreover, the GI50 in [15], in [19], in experiment [17] and in [18] was > 100 µM (inactive) throughout.

Take `COc1ccc2c(c1)-c1c(c3cc(OC)ccc3n1CCN(C)C)CC2`: the GI50 in experiment [1] is 6.35 µM (inactive); in experiment [2] it was 13.6 µM; in [3] it was 14 µM (inactive); in experiment [4], 21.5 µM (inactive); in [5], 12.2 µM (inactive); in experiment [6], 14.3 µM (inactive). Further, the GI50 was 12.6 µM (inactive) in experiment [7]; 17.6 µM (inactive) in [8]; 18.3 µM (inactive) in experiment [9]; 15.9 µM (inactive) in experiment [10]; 10.9 µM (inactive) in experiment [11]; 15.5 µM (inactive) in experiment [12]. For the same molecule, the GI50 in [13] is 13.7 µM (inactive); in experiment [14] it was 12.1 µM (inactive); in experiment [15], 12.4 µM (inactive); in experiment [16], 6.81 µM (inactive); in experiment [17], 11.7 µM (inactive); in experiment [18], 12.2 µM (inactive). Besides, in [20], the GI50 was 10.7 µM (inactive).
